{"source": "patent US8394794B2", "about": "“Therapeutic compounds” (Regents of The University of Minnesota, priority 2007, dated 2013)", "key": {"Bcl-2": {"biological_target": "T1, Bcl-2 (Homo sapiens, UniProt P10415)", "T1 construct": "made in house", "T1 sequence (P10415 whole entry, species assumed)": "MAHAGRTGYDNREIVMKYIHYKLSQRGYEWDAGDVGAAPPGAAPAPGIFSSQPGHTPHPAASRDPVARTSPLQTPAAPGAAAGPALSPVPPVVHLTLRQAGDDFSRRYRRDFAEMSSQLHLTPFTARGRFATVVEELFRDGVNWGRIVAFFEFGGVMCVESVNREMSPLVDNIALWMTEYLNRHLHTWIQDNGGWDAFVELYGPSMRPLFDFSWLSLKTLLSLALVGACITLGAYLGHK", "experiment": "Fluorescence polarization (FP) competition binding assay, Bcl-2", "conditions": "Table 1", "method": "This was done by using the FP based competition binding assay (see below).\nThe binding interactions of the test compound with Bcl-2, Bcl-XL and Bcl-w proteins were evaluated using the respective recombinant proteins. […] The assays were conducted via an optimized protocol established in the laboratory using a GENios Pro plate reader (Tecan US, NC) with all assays performed in triplicate, each assay performed twice (see Doshi, J. M.; Tian, D.; Xing, C. J. Med. Chem. 2006, 49, 7731)."}, "Bcl-XL": {"biological_target": "T2, Bcl-XL (Homo sapiens, UniProt Q07817)", "T2 construct": "made in house", "T2 sequence (Q07817 whole entry, species assumed)": "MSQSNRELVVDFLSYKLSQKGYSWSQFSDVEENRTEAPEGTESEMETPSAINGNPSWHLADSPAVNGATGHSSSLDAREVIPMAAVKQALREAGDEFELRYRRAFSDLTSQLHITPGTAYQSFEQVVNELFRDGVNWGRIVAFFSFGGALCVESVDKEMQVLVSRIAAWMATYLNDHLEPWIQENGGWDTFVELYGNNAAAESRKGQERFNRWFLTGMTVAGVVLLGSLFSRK", "experiment": "Fluorescence polarization (FP) competition binding assay, Bcl-XL", "description": "(§1) With the stability improved, the mechanism of action of compound 1 was studied to determine whether compound 1 would retain the same mechanism of HA 14-1 as an antagonist against anti-apoptotic Bcl-2 proteins. Table 1 summarizes the binding interaction of compound 1 with three anti-apoptotic Bcl-2 proteins by following an established fluorescence polarization competition assay (see Doshi, J. M.; Tian, D.; Xing, C. J. Med. Chem. 2006, 49, 7731-7739).\n(§2) To explore whether compound 3 functioned the same as HA 14-1 in inducing cell death, compound 3 was tested for its binding interactions with recombinant Bcl-2, Bcl-XL, and Bcl-w proteins. This was done by using the FP based competition binding assay (see below).\n(§3) The binding interactions of the test compound with Bcl-2, Bcl-XL and Bcl-w proteins were evaluated using the respective recombinant proteins. The preparation of these recombinant Bcl-2 proteins and fluorescently labeled Bak peptide has been detailed previously (see Doshi, J. M.; Tian, D.; Xing, C. J. Med. Chem. 2006, 49, 7731). The assays were conducted via an optimized protocol established in the laboratory using a GENios Pro plate reader (Tecan US, NC) with all assays performed in triplicate, each assay performed twice (see Doshi, J. M.; Tian, D.; Xing, C. J. Med. Chem. 2006, 49, 7731)."}, "Bcl-w": {"biological_target": "T3, Bcl-w (Homo sapiens, UniProt Q92843)", "T3 construct": "made in house", "T3 sequence (Q92843 1-193)": "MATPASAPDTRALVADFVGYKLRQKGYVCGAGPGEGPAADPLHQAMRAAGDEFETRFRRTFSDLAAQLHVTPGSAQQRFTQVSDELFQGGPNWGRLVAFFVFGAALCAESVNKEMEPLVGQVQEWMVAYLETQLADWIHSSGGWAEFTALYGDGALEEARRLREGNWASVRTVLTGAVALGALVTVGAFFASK", "experiment": "Fluorescence polarization (FP) competition binding assay, Bcl-w", "description": "as §1, §2, §3"}, "Jurkat cells [1]": {"system": "Jurkat cells", "experiment": "In vitro cytotoxicity assay (GI50) with fresh and incubated samples", "format": "cell-based", "conditions": "for increase of GI50 after incubation: 24-hour incubation in cell culture media at 37° C., FIG. 1; for loss of cytotoxicity after incubation: one hour incubation, FIG. 6", "method": "Compound 1 (Example 2) was first evaluated for its stability under physiological conditions. In brief, compound 1 was incubated in cell culture media at 37° C. for 24 hours and the in vitro cytotoxicity was determined. HA 14-1 was run in parallel for comparison.\nThe stability of compound 3 (Example 1) was evaluated using the in vitro cytotoxicity assay described below.\nThe in vitro cytotoxicity of the test compound was assayed by determining the GI50s (the concentration of the compound required to inhibit cell growth by 50%). In brief, Jurkat cells at a density of 10^4 cells/well were plated in a 96-well plate. A series of 3-fold dilution of the test compound with 1% DMSO in the final cell media was used for the cell treatment (cells treated with media containing 1% DMSO served as a control). An identical set of the test compounds was incubated at 37° C. for the specified time and used along with freshly prepared samples for the cell-viability assay. After 24-hour treatment, the relative cell viability in each well was determined by using CellTiter-Blue Cell Viability Assay kit (a fluorescence assay that measures the reduction of a dye (resazurin) into a fluorescent end product (resorufin) by metabolically active cells—viable cells) (Promega, CA). The GI50 of each candidate was determined by fitting the relative viability of the cells to the drug concentration by using a dose-response model in GraphPad software."}, "[2]": {"experiment": "HPLC analysis of decomposition in cell culture media", "format": "physicochemical", "conditions": "48-hour incubation in cell culture media at 37° C."}, "caspase-3/-7": {"system": "caspase-3/-7", "experiment": "Concentration-dependent activation of caspase-3/-7 / mode of cell death", "format": "cell-based", "conditions": "24 hours treatment; FIG. 2", "method": "Compound 1 was further analyzed for its mechanism to inhibit cell growth as HA 14-1 does. This was characterized for concentration-dependent activation of caspase-3/-7. HA 14-1 was run in parallel for comparison. […] Mechanistically, however, compound 1 induced cell death through two different pathways depending on its concentration, similar to HA 14-1. Between 50-100 μM, compound 1 induces apoptosis as characterized by caspase-3/-7 activation. On the other hand, at >100 μM, compound 1 induced non-apoptotic cell death (no activation of caspase-3/-7). The induction of cell death through apoptosis and non-apoptotic process was further supported by DNA fragmentation studies."}, "[3]": {"system": "Jurkat cells (normal, over-expressing Bcl-2, or over-expressing Bcl-XL)", "experiment": "In vitro cytotoxicity against three Jurkat cell lines (drug resistance)", "format": "cell-based", "conditions": "Jurkat normal vs Bcl-2 or Bcl-XL over-expressing; FIG. 3, FIG. 7", "method": "Compound 1 was further studied for its capability to overcome drug resistance induced by the over-expression of anti-apoptotic Bcl-2 proteins. Specifically, the in vitro cytotoxicity of compound 1 against three Jurkat cells (normal, over-expressing Bcl-2, or over-expressing Bcl-XL) were evaluated.\nThe ability of compound 3 to overcome the drug resistance induced by the over-expression of anti-apoptotic Bcl-2 proteins by evaluating its cytotoxicity in Bcl-2 or Bcl-XL over-expressing Jurkat cells was also evaluated.\nThe in vitro cytotoxicity of the test compound was assayed by determining the GI50s (the concentration of the compound required to inhibit cell growth by 50%). In brief, Jurkat cells at a density of 10^4 cells/well were plated in a 96-well plate. A series of 3-fold dilution of the test compound with 1% DMSO in the final cell media was used for the cell treatment (cells treated with media containing 1% DMSO served as a control). An identical set of the test compounds was incubated at 37° C. for the specified time and used along with freshly prepared samples for the cell-viability assay. […]"}, "Jurkat cells [4]": {"system": "Jurkat cells", "experiment": "Sensitization of Jurkat cells to doxorubicin (combination cytotoxicity)", "format": "cell-based", "conditions": "for synergism with doxorubicin: combination vs each alone, FIG. 4", "method": "Finally, compound 1 was analyzed for its capability in sensitizing tumor cells to standard chemotherapies. As HA 14-1 was established to sensitize various tumor cells to doxorubicin, compound 1 was tested in parallel with HA 14-1 for the potential synergism to doxorubicin in Jurkat cells. Briefly, the cytotoxicity of doxorubicin alone, compound 1 alone, or the combination of both to Jurkat cells were evaluated. […] This study established that compound 1 can function as a chemosensitizer in combination cancer therapy. The synergism of compound 1 was further supported by the dose-response potentiation of doxorubicin (FIG. 5)."}, "[5]": {"experiment": "Half-life under varying pH conditions", "format": "physicochemical", "conditions": "buffer"}, "[6]": {"system": "Jurkat cells (normal, over-expressing Bcl-2, or over-expressing Bcl-XL)", "conditions": "Jurkat over-expressing Bcl-2 or Bcl-XL; from Doshi et al. J. Med. Chem. 2006; cited from earlier work"}, "[7]": {"conditions": "Table 3, mean of two independent experiments with triplicate in each, read-out: Ki ± SEM Bcl-w"}}, "note": "Like-named read-outs stand apart in the source and are kept apart here."}
{"compound": "CCOC(=O)CC1C(C(=O)OCC)=C(N)Oc2ccc(Br)cc21", "note": "(stereo not drawn) [Compound 1, Ethyl-2-amino-6-bromo-4-(2-ethoxy-2-oxoethyl)-4H-chromene-3-carboxylate]", "values": [{"measurement": "Ki", "setting": "Bcl-2", "result": 858, "unit": "µM"}, {"measurement": "Ki", "setting": "Bcl-XL; Table 1, read-out: Ki Bcl-XL", "result": 390, "unit": "µM"}, {"measurement": "Ki", "setting": "Bcl-w; Table 1, read-out: Ki Bcl-w", "result": 686, "unit": "µM"}, {"measurement": "increase of GI50 after incubation", "setting": "Jurkat cells [1]", "result": 1.2, "unit": "fold"}, {"measurement": "cytotoxicity (inhibition of cell growth) compared with HA 14-1", "setting": "Jurkat cells [1]; 24 hours treatment, FIG. 2", "result": "less cytotoxic than HA 14-1"}, {"measurement": "decomposition by HPLC", "setting": "[2]", "result": "no decomposition was detected"}, {"measurement": "concentration inducing apoptosis (caspase-3/-7 activation)", "setting": "caspase-3/-7", "result": "50 to 100", "unit": "µM"}, {"measurement": "concentration inducing non-apoptotic cell death (no activation of caspase-3/-7)", "setting": "caspase-3/-7", "result": "> 100", "unit": "µM"}, {"measurement": "resistance induced by over-expression of Bcl-2 or Bcl-XL", "setting": "[3]", "result": "induced no resistance"}, {"measurement": "potentiation of doxorubicin", "setting": "Jurkat cells [4]; 30 μM compound, FIG. 5", "result": 1.4, "unit": "fold"}, {"measurement": "synergism with doxorubicin", "setting": "Jurkat cells [4]", "result": "able to synergize doxorubicin"}]}
{"compound": "CCOC(=O)C1=C(N)Oc2ccc(Br)cc2C1C(C)(C#N)C(=O)OCC", "note": "(stereo not drawn) [Compound 3, Ethyl-2-amino-6-bromo-4-(2-cyano-1-ethoxy-1-oxopropan-2-yl)-4H-chromene-3-carboxylate]", "values": [{"measurement": "Ki", "setting": "Bcl-XL; Table 3, mean of two independent experiments with triplicate in each, read-out: Ki ± SEM Bcl-XL", "result": "55.4 ± 0.88", "unit": "µM"}, {"measurement": "Ki", "setting": "Bcl-w; [7]", "result": "49.4 ± 1.76", "unit": "µM"}, {"measurement": "loss of cytotoxicity after incubation", "setting": "Jurkat cells [1]", "result": 2.5, "unit": "fold"}, {"measurement": "resistance induced by over-expression of Bcl-2 or Bcl-XL", "setting": "[3]", "result": "unable to induce any noticeable resistance"}, {"measurement": "half-life", "setting": "[5]; pH 6.0", "result": 2.75, "unit": "h"}]}
{"compound": "CCOC(=O)C1=C(N)Oc2ccc(Br)cc2C1C(C#N)C(=O)OCC", "note": "(stereo not drawn) [HA 14-1, reference compound]", "values": [{"measurement": "Ki", "setting": "Bcl-2", "result": "169 ± 18.9", "unit": "µM"}, {"measurement": "Ki", "setting": "Bcl-XL; Table 1, read-out: Ki Bcl-XL", "result": "58.9 ± 5.3", "unit": "µM"}, {"measurement": "Ki", "setting": "Bcl-w; Table 1, read-out: Ki Bcl-w", "result": "59.3 ± 5.3", "unit": "µM"}, {"measurement": "Ki", "setting": "Bcl-w; [7]", "result": "59.3 ± 5.32", "unit": "µM"}, {"measurement": "increase of GI50 after incubation", "setting": "Jurkat cells [1]", "result": "~35", "unit": "fold"}, {"measurement": "loss of cytotoxicity after incubation", "setting": "Jurkat cells [1]", "result": 10, "unit": "fold"}, {"measurement": "synergism with doxorubicin", "setting": "Jurkat cells [4]", "result": "able to synergize doxorubicin"}, {"measurement": "half-life", "setting": "[5]; pH 6.0", "result": 2.09, "unit": "h"}, {"measurement": "half-life", "setting": "[5]; pH 7.0", "result": 1.86, "unit": "h"}, {"measurement": "half-life", "setting": "[5]; pH 8.0", "result": 1.22, "unit": "h"}, {"measurement": "resistance induced by over-expression of Bcl-2 or Bcl-XL", "setting": "[6]", "result": "show no resistance"}]}
